Ends that are not written are not given here.

The source of these data is US9950048B2, “Immunogenic epitopes for immunotherapy” (immatics biotechnologies GmbH, priority 2007, dated 2018).

In data set [1] the test system is CD8+ T cells of healthy HLA-A*02+ donors. Nature of the data set: In vitro priming of CD8+ T cells with pMHC/anti-CD28 coated beads (high density), tetramer analysis. It is filed as cell-based, human. Particulars: for Immunogenicity detected: at least one well with ≥1% specific tetramer+ among CD8+ T-cells and ≥10× median of negative controls; for Positive donors/donors tested / Positive donors/donors tested (%) / Positive wells/wells tested / Positive wells/wells tested (%): high density beads. The method, then: To perform in vitro stimulations by artificial antigen presenting cells (aAPC) loaded with peptide-MHC complex (pMHC) and anti-CD28 antibody, first PBMCs (peripheral blood mononuclear cells) were isolated from fresh HLA-A*02+ buffy coats by using standard density gradient separation medium (PAA, Cölbe, Germany). Buffy coats were either obtained from the Blood Bank Tübingen or from the Katharinenhospital Stuttgart. Isolated PBMCs were incubated overnight in T-cell medium (TCM) for human in vitro priming consisting of RPMI-Glutamax (Invitrogen, Karlsruhe, Germany) supplemented with 10% heat inactivated human AB serum (PAA, Cölbe, Germany), 100 U/ml Penicillin/100 μg/ml Streptomycin (Cambrex, Verviers, Belgium), 1 mM sodium pyruvate (CC Pro, Neustadt, Germany) and 20 μg/ml Gentamycin (Cambrex). CD8+ lymphocytes were isolated using the CD8+ MACS positive selection kit (Miltenyi, Bergisch Gladbach, Germany) according to the manufacturer's instructions. Obtained CD8+ T-cells were incubated until use in TCM supplemented with 2.5 ng/ml IL-7 (PromoCell, Heidelberg, Germany) and 10 U/ml IL-2 (Chiron, Munich, Gemany). Generation of pMHC/anti-CD28 coated beads, T-cell stimulations and readout was performed as described before (Walter, S, et al., 2003, J. Immunol., 171, 4974-4978) with minor modifications. Briefly, biotinylated recombinant HLA-A*0201 molecules lacking the transmembrane domain and being biotinylated at the carboxy terminus of the heavy chain were produced following a method described by (Altman, J D, et al., 1996, Science, 274, 94-96). The purified costimulatory mouse IgG2a anti human CD28 Ab 9.3 (Jung, G, Ledbetter, J A, and Muller-Eberhard, H J; 1987, Induction of cytotoxicity in resting human T lymphocytes bound to tumor cells by antibody heteroconjugates, Proc Natl Acad Sci USA, 84, 4611-4615) was chemically biotinylated using Sulfo-N-hydroxysuccinimidobiotin as recommended by the manufacturer (Perbio, Bonn, Germany).
800,000 beads/200 μl were coated in 96-well plates in the presence of 600 ng biotin anti-CD28 plus 200 ng relevant biotin-pMHC (high density beads) or 2 ng relevant plus 200 ng irrelevant (pMHC library) MHC (low density beads). Stimulations were initiated in 96-well plates by conincubating 1×10^6 CD8+ T cells with 2×10^5 washed coated beads in 200 μl TCM supplemented with 5 ng/ml IL-12 (PromoCell) for 3-4 days at 37° C. Half of the medium was then exchanged by fresh TCM supplemented with 80 U/ml IL-2 and incubation was continued for 3-4 days at 37° C. This stimulation cycle was performed for a total of three times. Finally, tetrameric analyses were performed with fluorescent MHC tetramers (produced as described by (Altman, J D, et al., 1996, Science, 274, 94-96)) plus antibody CD8-FITC clone SK1 (BD, Heidelberg, Germany) on a four-color FACSCalibur (BD). Peptide specific cells were calculated as percentage of total CD8+ T cells. Evaluation of tetrameric analysis was performed using the software FCS Express (De Novo Software). In vitro priming of specific tetramer+CD8+ lymphocytes was detected by appropriate gating and by comparison to negative control stimulations.
Peptides of the present invention were tested together with peptides of known in vivo immunogenicity for comparison. The CEA-005 peptide that was optimised for in vitro T-cell induction (Fong, L, et al., 2001, J. Immunol., 166, 4254-4259) served as control.
Results of in vitro immunogenicity experiments conducted by immatics are summarised here. Results shown have been obtained by stimulation of CD8+ cells with high density beads. As different human serum lots may highly affect the immunogenicity results, only assays in which one and the same serum lot was used, were evaluated together.

Data set [2] relates to sorted CD8+ NOX-001 tetramer+ T-cell line. Briefly: IFNγ ELISPOT functionality test of sorted specific CD8+ T-cell line. The note with it: FIG. 8. The data set is classed as cell-based, human. The method, then: FIGS. 8A and 8B depict the ELISPOT analysis of IFNγ production by T-cell lines upon in vitro restimulation with the NOX-001 peptide. FIG. 8A is T-cell line 7+ from donor HBC-154 (sorted CD8+ NOX-001 tetramer+). FIG. 8B is T-cell line 7—from donor HBC-154 (sorted CD8+ NOX-001 tetramer+).
Sorted CD8+ NOX-001 tetramer+(A.) and CD8+ NOX-001 tetramer-(B.) cells were analysed by IFNγ ELISPOT after restimulation with irrelevant (MLA-001) (upper wells) and relevant (NOX-001) (lower wells) peptide (10 μg/ml). Numbers indicate the count of positive spots.
To determine their functionality, IFNγ production was assessed by ELISPOT (IFNγ ELISPOT Set, BD, Germany) after restimulation of the cells with the corresponding peptide. Additionally, cell-mediated cytotoxicity of specific CTLs was investigated by killing of tumor cell lines using the LIVE/DEAD cell-mediated cytotoxicity Kit (L7010, Invitrogen, Germany). Both assays were performed according to manufacturer's instructions, except noted otherwise.

Data set [3] in a line: Particle size/shape measurement and analytical HPLC of reconstituted IMA910 suspension. The data set is classed as physicochemical. Particulars: sodium hydrogen carbonate (4.2%). The method, then: Particle size distribution and particle shape measurement of the particles obtained after reconstitution have been performed by capturing direct images of each individual particle in the range of 0.25 to 100 μm followed by image analysis.
Furthermore, analytical HPLC was performed for a closer characterization of the obtained suspension.
IMA910 is dissolved in 700 μL sodium hydrogen carbonate (4.2%).

As to ILAPVILYI [NOX-001], in data set [1], the Immunogenicity detected result is “yes”, the Positive donors/donors tested is 3/5, the “Positive donors/donors tested (%)” value is recorded as “(60%)” and the Positive wells/wells tested is listed as 9/60. For the same sequence, the “Positive wells/wells tested (%)” value in data set [1] was “(15%)”. The “IFNγ production of T-cell line after restimulation with peptide” value in data set [2] is recorded as “specifically expressing IFNγ after restimulation with this peptide”. Also, in data set [3], the “solubility in the solution used for reconstitution of IMA910” value is reported as “almost insoluble”.

ALFVRLLALA [TGFBI-001]: in data set [1], the Immunogenicity detected result was “yes”, the Positive donors/donors tested was 3/4, the “Positive donors/donors tested (%)” value is recorded as “(75%)” and the Positive wells/wells tested is on record as 4/22. Moreover, in data set [1], the “Positive wells/wells tested (%)” value is given as “(18%)”. In addition, the “solubility in the solution used for reconstitution of IMA910” value in data set [3] is given as “almost insoluble”.
